Laboratory results published in PMC9358669, “Native metabolomics identifies the rivulariapeptolide family of protease inhibitors” (Nature Communications, 2022).
pIC50: −log10 of the molar value. Values joined by “and” are separate entries in the source; they are usually repeats but may differ in a detail not shown here. Equal entries are not always repeated. Where two headings read alike, the source gives them in different places.

Legend:
Chymotrypsin [1] = biological target: T1, Chymotrypsin (Bos taurus, UniProt P00766); test: Chymotrypsin inhibition, fluorogenic substrate assay (Suc-Ala-Ala-Pro-Phe-AMC); assay type: biochemical; conditions: for Mean (RFU/s): Chymotrypsin
T1 construct: purchased Sigma-Aldrich

Elastase = biological target: T2, Elastase (Sus scrofa, UniProt P00772); test: Elastase inhibition, fluorogenic substrate assay (MeOSuc-Ala-Ala-Pro-Val-AMC); assay type: biochemical, Sus domesticus; conditions: 40 min pre-incubation; for Mean (RFU/s): Elastase
T2 construct: purchased Sigma-Aldrich

Proteinase K = biological target: T3, Proteinase K (Parengyodontium album, UniProt P06873); test: Proteinase K inhibition, fluorogenic substrate assay (Suc-Ala-Ala-Pro-Phe-AMC); assay type: biochemical, Tritirachium album; conditions: 40 min pre-incubation; for Mean (RFU/s): Proteinase K
T3 construct: purchased Roche

Chymotrypsin [2] = biological target: T1, Chymotrypsin; test: Native metabolomics / native MS detection of chymotrypsin-ligand complexes; assay type: binding; conditions: for max. Ligand-protein ratio: replicates A, B, C
Description: For native metabolomics experiments, the same chromatographic parameters were used and in addition, 220 µL/min (setup A) or 150 µL/min (setup B) ammonium acetate buffer was infused post-column through a make-up pump and a PEEKT-splitter and enzyme solution was infused with 2 µL/min flow rate via the integrated syringe pump. ESI settings were set to 40 arb. units sheath gas flow, the auxiliary gas flow was set to 10 arb. units and sweep gas flow was set to 0 arb. units. The auxiliary gas temperature was set to 150 °C. The spray voltage was set to 3 kV and the inlet capillary was heated to 253 °C. S-lens level was set to 30 V applied. MS scan range was set to 2000-4000 m/z (setup A) and 2500–4000 m/z (setup B) with a resolution Rm/z 200 140,000 (setup A) and 120,000 (setup B) with 2 microscans. MS acquisition was performed in all-ion fragmentation (AIF) mode with Rm/z 200 with 20% HCD collision energy and an isolation window of 2000 –4000 m/z (setup A) or 2500–4000 m/z (setup B).
For native LC-MS data, multiple charged spectra were deconvoluted using the Xtract algorithm in Qualbrowser, part of the Xcalibur software (Thermo Scientific) and also using FLASHDeconv (version 2.0Beta) {Jeong, K. et al. FLASHDeconv: Ultrafast, High-Quality Feature Deconvolution for Top- Down Proteomics. Cell Syst 10, 213-218 e216 (2020).}. For Xtract algorithm, both deconvoluted native LC-MS and metabolomics LC-MS/MS.raw files were converted to the centroid.mzML file format using MSconvert of the proteowizard software package. For FLASHDeconv, the raw files were converted into centroid m/zML again using MSconvert software first. Then the converted mzML files were deconvolved to generate deconvolved.mzML format files. Feature finding of both file types was performed using a modified version of MZmine2.37 (corr.17.7). Feature tables from both intact protein mass and metabolomics data were matched by their retention time (RT) and an m/z offset corresponding to the mass of chymotrypsin (25234 Da) with an RT tolerance of 0.2 min and a mass tolerance of 4 Da.
To optimize ESI setting as well as the influence of NH4Acetate concentration and pH, we used molassamide as a test compound. For optimization of ESI settings, we performed flow injections without a column and ramped ESI aux gas temperature, in-source CID energy, S-lense RF voltage. Optimization of pH values over the entire LC gradient and peak intensities were both assessed using three different make-up buffers. Make-up buffer 1 was water, make-up buffer 2 was 10 mM NH4Acetate buffer, and make-up buffer 3 was 10 mM NH4Acetate buffer + 0.2% ammonium hydroxide, v/v. Effects of NH4Acetate concentration was assessed with an online mixed make-up flow (using Experimental Setup B) with the low-pressure gradient pump. As solvent A we used LC-MS grade water and 100 mM NH4Acetate as solvent B. Molassamide was prepared as 100 µM solutions from a 10 mM stock solution in DMSO by preparing a 1:100 dilution into solvent mixture 1 (water + 10% acetonitrile + 0.1% formic acid). Samples were analyzed as described in micro-flow LC-MS/MS data acquisition (setup A); 2 µL of each solution were injected into the mass spectrometer, while chymotrypsin (Sigma), dissolved in water to a final concentration of 2 mg/mL, was injected through the syringe pump at a flow rate of 2 µL/min. pH values were assessed by disconnecting the flow to the source and collecting ~30 µL of solvent every minute, then testing this value on pH paper.
Molassamide was prepared as 100 µM solutions from a 10 mM stock solution in DMSO by preparing a 1:100 dilution into solvent mixture 1 (water + 10% acetonitrile + 0.1% formic acid). From this 100 µM solution, dilutions were prepared at 10, 1, and 0.1 µM into solvent mixture 1. 2 µL of each solution were injected into the mass spectrometer. […]

Chymotrypsin [3] = tested on: Chymotrypsin; set-up: method as in earlier work; conditions: Supplementary Table 5, Top 50 chymotrypsin inhibitors among Ahp-cyclodepsipeptides; cited from earlier work
[4] = inhibitor concentration 0.0508053 nM
[5] = inhibitor concentration 0.152416 nM
[6] = inhibitor concentration 0.457247 nM
[7] = inhibitor concentration 1.37174 nM
[8] = inhibitor concentration 4.11523 nM
[9] = inhibitor concentration 12.3457 nM
[10] = inhibitor concentration 37.037 nM
[11] = inhibitor concentration 111.111 nM
[12] = inhibitor concentration 333.333 nM
[13] = inhibitor concentration 1000 nM
[14] = inhibitor concentration 3000 nM

T2 sequence (P00772 27-266): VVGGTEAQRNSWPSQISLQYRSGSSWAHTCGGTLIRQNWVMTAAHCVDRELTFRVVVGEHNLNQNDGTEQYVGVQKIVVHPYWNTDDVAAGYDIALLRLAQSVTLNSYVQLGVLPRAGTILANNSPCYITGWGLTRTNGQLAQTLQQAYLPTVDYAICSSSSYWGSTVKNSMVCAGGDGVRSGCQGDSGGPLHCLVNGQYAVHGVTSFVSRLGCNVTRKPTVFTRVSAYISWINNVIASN
T3 sequence (P06873 106-384): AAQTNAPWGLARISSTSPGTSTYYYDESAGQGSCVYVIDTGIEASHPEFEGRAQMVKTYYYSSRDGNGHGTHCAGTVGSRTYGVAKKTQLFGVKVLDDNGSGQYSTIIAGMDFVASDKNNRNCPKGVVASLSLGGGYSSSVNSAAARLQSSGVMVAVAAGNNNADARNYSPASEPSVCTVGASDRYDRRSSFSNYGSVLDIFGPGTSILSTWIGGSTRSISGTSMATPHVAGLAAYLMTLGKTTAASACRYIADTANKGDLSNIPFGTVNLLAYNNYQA

## C/C=C1\NC(=O)[C@@H](NC(=O)[C@@H](NC(=O)[C@H](C)NC(=O)CCC)[C@@H](C)O)[C@@H](C)OC(=O)[C@H](C(C)C)NC(=O)[C@H](Cc2ccc(O)cc2)N(C)C(=O)[C@H](Cc2ccccc2)N2C(=O)[C@H](CC[C@H]2O)NC1=O [Molassamide, molassamide]
Chymotrypsin [1]; 40 min pre-incubation, mean, n = 3, read-out: IC50 Chymotrypsin
  pIC50: 6.06
Chymotrypsin [1]; inhibitor concentration 0.0508053 nM, 40 min pre-incubation
  Mean (RFU/s): 5.082 RFU/s
Chymotrypsin [1]; inhibitor concentration 0.152416 nM, 40 min pre-incubation
  Mean (RFU/s): 5.023 RFU/s
Chymotrypsin [1]; inhibitor concentration 0.457247 nM, 40 min pre-incubation
  Mean (RFU/s): 5.172 RFU/s
Chymotrypsin [1]; inhibitor concentration 1.37174 nM, 40 min pre-incubation
  Mean (RFU/s): 5.411 RFU/s
Chymotrypsin [1]; inhibitor concentration 4.11523 nM, 40 min pre-incubation
  Mean (RFU/s): 5.346 RFU/s
Chymotrypsin [1]; inhibitor concentration 12.3457 nM, 40 min pre-incubation
  Mean (RFU/s): 5.257 RFU/s
Chymotrypsin [1]; inhibitor concentration 37.037 nM, 40 min pre-incubation
  Mean (RFU/s): 4.609 RFU/s
Chymotrypsin [1]; inhibitor concentration 111.111 nM, 40 min pre-incubation
  Mean (RFU/s): 4.56 RFU/s
Chymotrypsin [1]; inhibitor concentration 333.333 nM, 40 min pre-incubation
  Mean (RFU/s): 3.784 RFU/s
Chymotrypsin [1]; inhibitor concentration 1000 nM, 40 min pre-incubation
  Mean (RFU/s): 2.129 RFU/s
Chymotrypsin [1]; inhibitor concentration 3000 nM, 40 min pre-incubation
  Mean (RFU/s): 0.9597 RFU/s
Chymotrypsin [1]; Supplementary Table 5, compounds of this study, read-out: Chymotrypsin IC50
  pIC50: 6.06
Elastase; mean, n = 3
  pIC50: 7.43
Elastase; [4]
  Mean (RFU/s): 0.8563 RFU/s
Elastase; [5]
  Mean (RFU/s): 0.8307 RFU/s
Elastase; [6]
  Mean (RFU/s): 0.841 RFU/s
Elastase; [7]
  Mean (RFU/s): 0.8127 RFU/s
Elastase; [8]
  Mean (RFU/s): 0.7663 RFU/s
Elastase; [9]
  Mean (RFU/s): 0.6947 RFU/s
Elastase; [10]
  Mean (RFU/s): 0.4253 RFU/s
Elastase; [11]
  Mean (RFU/s): 0.1337 RFU/s
Elastase; [12]
  Mean (RFU/s): 0.03867 RFU/s
Elastase; [13]
  Mean (RFU/s): 0 RFU/s
Elastase; [14]
  Mean (RFU/s): 0 RFU/s
Proteinase K; mean, n = 3
  pIC50: 7.67
Proteinase K; [4]
  Mean (RFU/s): 6.609 RFU/s
Proteinase K; [5]
  Mean (RFU/s): 6.463 RFU/s
Proteinase K; [6]
  Mean (RFU/s): 6.371 RFU/s
Proteinase K; [7]
  Mean (RFU/s): 6.067 RFU/s
Proteinase K; [8]
  Mean (RFU/s): 5.597 RFU/s
Proteinase K; [9]
  Mean (RFU/s): 4.375 RFU/s
Proteinase K; [10]
  Mean (RFU/s): 2.174 RFU/s
Proteinase K; [11]
  Mean (RFU/s): 0.71 RFU/s
Proteinase K; [12]
  Mean (RFU/s): 0.19 RFU/s
Proteinase K; [13]
  Mean (RFU/s): 0.07 RFU/s
Proteinase K; [14]
  Mean (RFU/s): 0 RFU/s
Chymotrypsin [2]; HESI Aux Gas Temperature 40 °C
  Relative abundance Chymotrypsin-molassamide complex [%], Average: 32.7%
Chymotrypsin [2]; HESI Aux Gas Temperature 70 °C
  Relative abundance Chymotrypsin-molassamide complex [%], Average: 28.3%
Chymotrypsin [2]; HESI Aux Gas Temperature 100 °C
  Relative abundance Chymotrypsin-molassamide complex [%], Average: 32.3%
Chymotrypsin [2]; HESI Aux Gas Temperature 140 °C
  Relative abundance Chymotrypsin-molassamide complex [%], Average: 39.0%
Chymotrypsin [2]; HESI Aux Gas Temperature 170 °C
  Relative abundance Chymotrypsin-molassamide complex [%], Average: 34.0%
Chymotrypsin [2]; HESI Aux Gas Temperature 200 °C
  Relative abundance Chymotrypsin-molassamide complex [%], Average: 35.3%
Chymotrypsin [2]; HESI Aux Gas Temperature 250 °C
  Relative abundance Chymotrypsin-molassamide complex [%], Average: 27.7%
Chymotrypsin [2]; HESI Aux Gas Temperature 300 °C
  Relative abundance Chymotrypsin-molassamide complex [%], Average: 28.7%
Chymotrypsin [2]; In-Source CID Energy 0 eV
  Relative abundance Chymotrypsin-molassamide complex [%], Average: 27.7%
Chymotrypsin [2]; In-Source CID Energy 10 eV
  Relative abundance Chymotrypsin-molassamide complex [%], Average: 29.3%
Chymotrypsin [2]; In-Source CID Energy 20 eV
  Relative abundance Chymotrypsin-molassamide complex [%], Average: 33.0%
Chymotrypsin [2]; In-Source CID Energy 30 eV
  Relative abundance Chymotrypsin-molassamide complex [%], Average: 32.3%
Chymotrypsin [2]; In-Source CID Energy 40 eV
  Relative abundance Chymotrypsin-molassamide complex [%], Average: 30.7%
Chymotrypsin [2]; In-Source CID Energy 60 eV
  Relative abundance Chymotrypsin-molassamide complex [%], Average: 12.3%
Chymotrypsin [2]; In-Source CID Energy 80 eV
  Relative abundance Chymotrypsin-molassamide complex [%], Average: 1.3%
Chymotrypsin [2]; S-Lense RF level 10 %
  Relative abundance Chymotrypsin-molassamide complex [%], Average: 34.3%
Chymotrypsin [2]; S-Lense RF level 30 %
  Relative abundance Chymotrypsin-molassamide complex [%], Average: 31.0%
Chymotrypsin [2]; S-Lense RF level 50 %
  Relative abundance Chymotrypsin-molassamide complex [%], Average: 30.0%
Chymotrypsin [2]; S-Lense RF level 70 %
  Relative abundance Chymotrypsin-molassamide complex [%], Average: 40.7%
Chymotrypsin [2]; S-Lense RF level 90 %
  Relative abundance Chymotrypsin-molassamide complex [%], Average: 30.7%
Chymotrypsin [2]; concentration 0.01 µM
  max. Ligand-protein ratio: 0.00
Chymotrypsin [2]; concentration 0.10 µM
  max. Ligand-protein ratio: 0.0566 and 0.0543 and 0.05
Chymotrypsin [2]; concentration 1.00 µM
  max. Ligand-protein ratio: 0.25 and 0.22 and 0.26
Chymotrypsin [2]; concentration 6.67 µM
  max. Ligand-protein ratio: 0.77 (2×) and 0.82
Chymotrypsin [2]; concentration 12.50 µM
  max. Ligand-protein ratio: 0.98 and 0.93 and 0.99
Chymotrypsin [2]; concentration 20.00 µM
  max. Ligand-protein ratio: 0.94 (2×) and 1.00
Chymotrypsin [2]; concentration [µM] 0.1
  Peak Area Protein-Ligand-Complex: 6.16E+04
Chymotrypsin [2]; concentration [µM] 1
  Peak Area Protein-Ligand-Complex: 8.18E+05
Chymotrypsin [2]; concentration [µM] 10
  Peak Area Protein-Ligand-Complex: 1.09E+07
Chymotrypsin [2]; concentration [µM] 50
  Peak Area Protein-Ligand-Complex: 4.40E+07
Chymotrypsin [2]; concentration [µM] 100
  Peak Area Protein-Ligand-Complex: 7.00E+07
Chymotrypsin [3]
  pIC50: 6.63
